Where two headings read alike, the source gives them in different places.
How the values were obtained:
S100A9 [1] = molecular target: T1, S100A9 (Homo sapiens, UniProt P06702); experiment: intrinsic Trp88 fluorescence titration; ANS fluorescence titration gave Kd […]; ThT/AFM amyloid inhibition; assay type: binding
T1 construct: native S100A9 expressed in Escherichia coli
T1 sequence (P06702 1-114): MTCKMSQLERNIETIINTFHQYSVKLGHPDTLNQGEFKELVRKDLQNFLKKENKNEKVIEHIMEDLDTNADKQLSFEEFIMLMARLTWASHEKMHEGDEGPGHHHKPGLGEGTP

S100A9 [2] = molecular target: T1, S100A9; experiment: as above; assay type: binding; remark: listed apart in the source

Kd (S100A9 [1])	Kd (S100A9 [2])	Substance
2860 ± 390 nM	–	Nb10
–	2480 ± 200 nM	TiNb9

Source: paper PMC8289188, “Polyoxometalates as Effective Nano-inhibitors of Amyloid Aggregation of Pro-inflammatory S100A9 Protein Involved in Neurodegenerative Diseases” (ACS Applied Materials & Interfaces, 2021)
